PMC4658348 (ACS chemical biology, 2015)

Columns and labels:
Format in all cases: biochemical
[1] = target: T1, vacuolar-type ATPase (V-ATPase) (Saccharomyces cerevisiae, UniProt P25515+P32563); assay: enzyme-coupled ATPase assay
human HSP90α = human HSP90α (Homo sapiens, UniProt P07900); assay: ATP/NADH-coupled ATPase assay
[2] = target: T1, vacuolar-type ATPase (V-ATPase); assay: enzyme-coupled ATPase assay; remark: listed apart in the source

Row | SMILES | IC50 [1] | IC50 (human HSP90α) | enzyme-coupled ATPase assay (NADH loss) with purified V-ATPase [2]
1 | CC[C@@H](O)[C@H](C)/C=C/C(=O)[C@@H](C)[C@H](O)[C@H](C)[C@H]1OC(=O)/C(C)=C/C(C)=C/[C@@H](C)[C@@H](O)[C@@H](C)C/C(C)=C/C=C/[C@@H]1OC [oxohygrolidin] | ~0.25 µM | ~50 µM | 
2 | CO/C1=C\C(C)=C\[C@@H](C)[C@@H](O)[C@@H](C)C/C(C)=C/C=C/[C@H](OC)[C@@H]([C@@H](C)[C@@H](O)[C@H](C)[C@@]2(O)C[C@@H](O)[C@H](C)[C@@H](C(C)C)O2)OC1=O [bafilomycin A1] |  |  | Oxohygrolidin (black bar) inhibited V-ATPase comparable to the plecomacrolides, bafilomycin A1(dotted bar), and concanamycin A (hatched bar)
